Measurements from ChEMBL document CHEMBL3352786, “Structure-based design and optimization of potent inhibitors of the adenoviral protease” (Bioorg Med Chem Lett, 2015).
Converted amounts (≈) assume the structure as drawn.

What was measured:
[1] = system: adenain (human adenovirus serotype 8); assay: Inhibition of human adenovirus serotype 8 adenain protease expressed in Escherichia coli […] (DE3) using Ac-WLRGG*ARC(PT14)-NH2 as substrate by FLT assay
[2] = Permeability of the compound by PAMPA; format: ADME
[3] = system: adenain (human adenovirus serotype 5); assay: Inhibition of human adenovirus serotype 5 adenain protease expressed in Escherichia coli […] (DE3) using Ac-WLRGG*ARC(PT14)-NH2 as substrate by FLT assay
[4] = target: Cathepsin B (Homo sapiens, UniProt P07858)
Description: Inhibition of human recombinant Cathepsin B using fluorogenic peptide substrate

[5] = target: Procathepsin L (Homo sapiens, UniProt P07711)
Chain of Procathepsin L (P07711 whole entry): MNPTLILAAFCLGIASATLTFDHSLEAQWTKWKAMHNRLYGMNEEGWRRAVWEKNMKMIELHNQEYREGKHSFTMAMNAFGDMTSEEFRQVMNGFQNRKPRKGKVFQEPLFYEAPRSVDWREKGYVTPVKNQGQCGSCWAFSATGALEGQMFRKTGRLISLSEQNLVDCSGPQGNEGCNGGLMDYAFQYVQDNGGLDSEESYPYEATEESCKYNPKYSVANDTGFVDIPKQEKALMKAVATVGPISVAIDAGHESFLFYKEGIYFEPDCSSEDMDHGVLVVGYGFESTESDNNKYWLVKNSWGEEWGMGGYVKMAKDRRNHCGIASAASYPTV
Description: Inhibition of human recombinant Cathepsin L using fluorogenic peptide substrate

[6] = target: T1, Cathepsin K (Homo sapiens, UniProt P43235)
T1 sequence (P43235 whole entry): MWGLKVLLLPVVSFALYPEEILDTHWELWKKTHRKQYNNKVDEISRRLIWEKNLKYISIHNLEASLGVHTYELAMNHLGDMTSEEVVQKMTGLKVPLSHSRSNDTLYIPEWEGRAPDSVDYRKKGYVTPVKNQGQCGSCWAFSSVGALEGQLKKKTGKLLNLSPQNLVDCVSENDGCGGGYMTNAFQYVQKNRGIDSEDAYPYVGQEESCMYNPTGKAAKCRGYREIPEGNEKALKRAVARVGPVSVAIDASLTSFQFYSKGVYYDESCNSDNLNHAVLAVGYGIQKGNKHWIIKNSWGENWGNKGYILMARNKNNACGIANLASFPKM
Description: Inhibition of human recombinant Cathepsin K using fluorogenic peptide substrate

[7] = target: Cathepsin S (Homo sapiens, UniProt P25774)
Chain of Cathepsin S (P25774 whole entry): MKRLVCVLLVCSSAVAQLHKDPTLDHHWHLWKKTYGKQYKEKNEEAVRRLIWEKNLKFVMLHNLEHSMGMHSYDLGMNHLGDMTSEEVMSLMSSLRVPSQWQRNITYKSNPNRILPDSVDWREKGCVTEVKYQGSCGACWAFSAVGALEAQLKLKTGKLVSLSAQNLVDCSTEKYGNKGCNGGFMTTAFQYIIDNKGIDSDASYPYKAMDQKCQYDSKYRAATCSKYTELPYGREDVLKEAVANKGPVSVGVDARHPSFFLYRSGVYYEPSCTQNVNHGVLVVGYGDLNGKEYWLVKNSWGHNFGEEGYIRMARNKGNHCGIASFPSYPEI
Description: Inhibition of human recombinant Cathepsin S using fluorogenic peptide substrate

[8] = Equilibrium solubility of the compound at pH 6.8; format: physicochemical; conditions: buffer
[9] = target: Dipeptidyl peptidase 1 (Homo sapiens, UniProt P53634)
Chain of Dipeptidyl peptidase 1 (P53634 25-134 limits assumed): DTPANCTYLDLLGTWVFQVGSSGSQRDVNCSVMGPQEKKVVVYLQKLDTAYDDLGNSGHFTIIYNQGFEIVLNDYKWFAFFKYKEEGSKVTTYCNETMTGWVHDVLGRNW
Chain of Dipeptidyl peptidase 1 (P53634 231-394 limits assumed): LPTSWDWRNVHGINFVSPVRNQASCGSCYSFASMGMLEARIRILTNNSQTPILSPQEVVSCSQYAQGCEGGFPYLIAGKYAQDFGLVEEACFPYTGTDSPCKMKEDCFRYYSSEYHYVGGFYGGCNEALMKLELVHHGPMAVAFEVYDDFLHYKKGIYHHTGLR
Chain of Dipeptidyl peptidase 1 (P53634 395-463 limits assumed): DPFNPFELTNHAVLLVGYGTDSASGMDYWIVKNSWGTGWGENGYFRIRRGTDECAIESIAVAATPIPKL
Description: Inhibition of human recombinant Cathepsin C using fluorogenic peptide substrate

[10] = system: Human adenovirus 5; assay: Antiviral activity against human adenovirus 5 infected in HEK293 cells assessed as reduction in viral induced cytopathogenicity incubated for 5 days by Celltiter-Glo luminescent cell viability assay; format: functional, organism-based; conditions: Human mastadenovirus C, HEK293, 120 h

| SMILES | IC50 [1] [µM] | logPm [2] | IC50 [3] [µM] | IC50 [4] [µM] | IC50 [5] [µM] | IC50 [6] [µM] | IC50 [7] [µM] | solubility thermodynamic [8] [µM] | IC50 [9] [µM] | EC50 [10] [µM] |
| --- | --- | --- | --- | --- | --- | --- | --- | --- | --- | --- |
| CS(=O)(=O)N[C@H](C(=O)N[C@@H](Cc1ccccc1)C(=O)NCC(=O)NCC#N)c1cccc(Cl)c1 | 0.04 | -5.6 | 0.03 | – | – | – | – | – | – | – |
| COc1ccc(C(=O)NCC(=O)NCC#N)cc1C(=O)C(C)c1cc(Cl)cc(Cl)c1 (configuration not stated) | 0.95 | – | 0.31 | – | – | – | – | – | – | – |
| CN(C)CCOc1ccc(C(=O)NCC(=O)NCC#N)cc1C(=O)C(C)(C)c1cc(Cl)cc(Cl)c1 | 0.01 | -5.5 | 0.007 | > 100 | 100 | > 100 | > 100 | > 1000 | > 100 | – |
| CC(C)(C)[C@H](NC(=O)Cc1cc(Cl)cc(Cl)c1)C(=O)NCC(=O)NC/C=C/S(C)(=O)=O | 0.01 | -5.6 | 0.01 | > 100 | > 100 | 95 | > 100 | – | > 100 | 4.5 |
| CC[C@H](C(=O)N[C@H]1CCN(CC(=O)NC/C=C/S(C)(=O)=O)C1=O)c1cc(Cl)cc(Cl)c1 | 0.004 | -5.5 | 0.002 | > 100 | > 100 | > 100 | > 100 | – | > 100 | 8.9 |
| COc1ccc(C(=O)NCC(=O)NCC#N)cc1C(=O)C(C)(C)c1cc(Cl)cc(Cl)c1 | 0.04 | -5 | 0.03 | > 100 | > 100 | > 100 | > 100 | 50 (≈ 23.1 µg/mL) | > 100 | – |
| COc1ccc(C(=O)NCC(=O)NCC#N)cc1C(=O)Cc1cc(Cl)cc(Cl)c1 | 2.74 | – | 1.1 | – | – | – | – | – | – | – |
| CN(C)CCOc1ccc(C(=O)NCc2ccnc(C#N)n2)cc1C(=O)C(C)(C)c1cc(Cl)cc(Cl)c1 | 0.0001 | -4.2 | 0.0001 | 81 | > 11 | 19 | 24 | 490 (≈ 265 µg/mL) | 18 | 3.9 |
| CCN[C@H](C(=O)N[C@H](C(=O)NCC(=O)NC/C=C/S(C)(=O)=O)C(C)(C)C)c1cc(Cl)cc(Cl)c1 | < 0.001 | – | < 0.001 | > 100 | > 100 | 73 | > 100 | – | > 100 | 31 |
| COc1ccc(C(=O)NCc2ccnc(C#N)n2)cc1C(=O)C(C)(C)c1cc(Cl)cc(Cl)c1 | 0.0006 | – | 0.0002 | 8.1 | 5.6 | 9.5 | 1 | – | 66 | > 50 |
| COc1ccc(C(=O)NCC(=O)NC/C=C/S(C)(=O)=O)cc1C(=O)C(C)(C)c1cc(Cl)cc(Cl)c1 | 0.001 | -4.1 | 0.001 | > 100 | > 100 | > 100 | > 100 | – | > 100 | – |
